Measurements published in article PMC8237267 (Journal of Medicinal Chemistry, 2021).

Experiments:
[1] = test system: cleavage of PARP-1 and Caspase-3; experiment: Western blot of apoptosis markers in MV4-11 cells; type: cell-based; conditions: MV4-11, 6 h, 5 μM
Experimental: (§1) Briefly, MV4-11 cells were incubated with inhibitors prior to cell lysis with radioimmunoprecipitation assay (RIPA) buffer (20 mM Tris pH 7.4, 150 mM NaCl, 0.5% deoxycholate, 1% Triton X-100, and 0.1% sodium dodecyl sulfate (SDS)). Total protein content was determined through a BCA assay (ThermoFisher), resolved via a 4–20% polyacrylamide SDS gel, and transferred to a nitrocellulose membrane (Bio-Rad). The membranes were blocked with a 5% solution (skimmed milk powder in PBS-T). This was followed by incubation at 4 °C (overnight) with the following antibodies: acetylated α-tubulin mouse monoclonal (MABT868, EMD Millipore), acetylated histone H3 (Ac-Lys18, 07–354, Sigma), PARP-1 (ab227244, Abcam), apoptosis Western blot cocktail (136812, Abcam), cleaved PARP-1 (ab32561, Abcam), and HSC70 (sc-7298, Santa Cruz). Following overnight incubation, horseradish peroxidase (HRP)-conjugated goat anti-mouse IgG secondary antibody (7076, Cell Signaling) or HRP-linked anti-rabbit IgG secondary antibody (7074, Cell Signaling) was applied to the membrane in a 1:5000 dilution. The bands were visualized using clarity Western ECL substrate luminal/enhancer solution and peroxide solution. Western blotting analysis was carried out using Image lab software (Bio-Rad).[47],[50],[70]

[2] = test system: acetylation of α-tubulin; experiment: Immunofluorescence assay in HeLa cells; type: cell-based; conditions: 6 h, increasing doses
Experimental: HeLa cells were plated to subconfluency on a 96-well plate (clear bottom black from Fisher Scientific). As above, inhibitors were introduced following 24 h. The cells were washed with 1× PBS, fixed with 4% formaldehyde (Millipore Sigma), permeabilized with 1% Triton X-100 (Millipore Sigma), and blocked in 5% bovine serum albumin (BSA) (BioShop) for 1 h at room temperature. Following this treatment, the cells were incubated in a cocktail composed of acetylated α-tubulin mouse monoclonal (1:100 dilution, MD Millipore) and acetylated histone H3 (1:50 dilution, Ac-Lys18, Sigma) antibodies. Secondary antibodies anti-mouse Alexa Fluor 647 and anti-rabbit Alexa Fluor 488 were used for immunofluorescent detection. Cells were counterstained for nucleic acids using 4′,6-diamidino-2-phenylindole (DAPI) (ThermoFisher Scientific). The cells were imaged with a Cytation S63 spectrophotometer and the fluorescence intensity was determined using ImageJ (n = 3). Two-way ANOVA with Tukey’s multiple comparisons test were performed using GraphPad Prism 6.0 (GraphPad Software Inc.). A p-value ≤ 0.05 was considered significant.

[3] = test system: NK-92; experiment: Cytotoxicity assay (Cell Titer-Blue, 72 h); type: cell-based; conditions: NK92; LGL; one representative of three experiments; read-out: IC50 (heat map) NK-92
[4] = test system: DND-41; experiment: Cytotoxicity assay (Cell Titer-Blue, 72 h); type: cell-based; conditions: DND41; T-ALL; one representative of three experiments; read-out: IC50 (heat map) DND-41
[5] = test system: KHYG-1; experiment: Cytotoxicity assay (Cell Titer-Blue, 72 h); type: cell-based; conditions: ANKL, one representative of three experiments, read-out: IC50 (heat map) KHYG-1
[6] = test system: SU-DHL-1; experiment: Cytotoxicity assay (Cell Titer-Blue, 72 h); type: cell-based; conditions: Homo sapiens, ALK+ ALCL, one representative of three experiments, read-out: IC50 (heat map) SU-DHL-1
[7] = test system: pPF (primary pooled fibroblasts from 250 donors); experiment: Cytotoxicity assay (Cell Titer-Blue, 72 h); type: cell-based; conditions: Fibroblast, read-out: Cellular IC50 pPF
[8] = test system: HUVEC (primary human umbilical vein endothelial cells); experiment: Cytotoxicity assay (Cell Titer-Blue, 72 h); type: cell-based; conditions: read-out: Cellular IC50 HUVEC
[9] = test system: Myla; experiment: Cytotoxicity assay (Cell Titer-Blue, 72 h); type: cell-based; conditions: CTCL; one representative of three experiments; read-out: IC50 (heat map) Myla
[10] = test system: acetylated histone H3; experiment: Western blot in MV4-11 cells; type: cell-based; conditions: MV4-11, 6 h
Experimental: as §1

[11] = test system: MV4-11 cells; experiment: FACS apoptosis detection assay (Annexin V/PI); type: cell-based; conditions: MV4-11, 18 h
Experimental: MV4-11 cells were prepared, dosed, and washed with cold 1× PBS. The resulting cell pellets were resuspended in 1× Binding Buffer (1 × 10^6 cell/mL) from the FITC Annexin V Apoptosis Detection Kit I (BD Pharmingen). Subsequently, the dyes annexin V (5 μL) and propidium iodide (PI, 5 μL) were added to 2.5 × 10^5 cells (250 μL). The suspension was thoroughly mixed and incubated in the dark for 15 min. Following the addition of 250 μL of 1× binding buffer, the cells were analyzed by flow cytometry within 1 h using the Cytoflex S system (Beckman Coulter).

[12] = test system: MOLM-13; experiment: Cytotoxicity assay (Cell Titer-Blue, 72 h); type: cell-based; conditions: Homo sapiens, AML, one representative of three experiments, read-out: IC50 (heat map) MOLM-13
[13] = test system: NHF (normal human fibroblasts); experiment: Cytotoxicity assay (Cell Titer-Blue, 72 h); type: cell-based; conditions: Fibroblast, read-out: Cellular IC50 NHF
[14] = test system: Mac1; experiment: Cytotoxicity assay (Cell Titer-Blue, 72 h); type: cell-based; conditions: ALK- ALCL; one representative of three experiments; read-out: IC50 (heat map) Mac1
Experimental: (§2) The PTCL cell lines, KHYG-1, NK-92, SNK6, DERL-2, Mac1, 1305 Myla, Hut78, SU-DHL-1 or T-ALL cell lines SUP-T11, DND-41, and MOLT4 were maintained in RPMI-1640 supplemented with 10% FBS, 0.06 g/L penicillin/0.1 g/L streptomycin (Pen/Strep, Gibco), and 2 mM L-glutamine (Gibco). Culture media of KHYG-1, NK-92, SNK6, and DERL-2 cells was additionally supplemented with 2.5 ng/mL recombinant human IL-2 (ImmunoTools GmbH, Germany). The authenticity of PTCL cell lines was confirmed by analysis of highly polymorphic short tandem repeat loci (STR) using the PowerPlex 16 HS System (Promega; performed by Microsynth AG, Switzerland).
(§3) Cells were plated in 96-well flat-bottom sterile culture plates with low-evaporation lids (Costar #3997). The inhibitors and a vehicle control (0.5% DMSO) were added to the cells following 24 h. After 72 h, Cell Titer-Blue (Promega #G808A) was added to each well (20 μL), and the fluorescence was measured at 560/590 nm using a Cytation S63 spectrophotometer (BioTek) or a GloMax Discover Microplate Reader (Promega, Madison, WI, USA). GraphPad Prism 6.0 (GraphPad Software Inc.) was used to determine the IC50 values.

[15] = test system: Hut78; experiment: Cytotoxicity assay (Cell Titer-Blue, 72 h); type: cell-based; conditions: Homo sapiens, CTCL, one representative of three experiments, read-out: IC50 (heat map) Hut78
Experimental: as §2, §3

[16] = test system: MV4-11; experiment: Cytotoxicity assay (Cell Titer-Blue, 72 h); type: cell-based; conditions: Homo sapiens; MV4-11 (AML); read-out: In cellulo IC50 MV4-11
[17] = test system: MOLT4; experiment: Cytotoxicity assay (Cell Titer-Blue, 72 h); type: cell-based; conditions: Homo sapiens, MOLT-4; T-ALL; one representative of three experiments; read-out: IC50 (heat map) MOLT4
[18] = test system: DERL-2; experiment: Cytotoxicity assay (Cell Titer-Blue, 72 h); type: cell-based; conditions: γδ T-NHL; one representative of three experiments; read-out: IC50 (heat map) DERL-2
[19] = test system: SNK6; experiment: Cytotoxicity assay (Cell Titer-Blue, 72 h); type: cell-based; conditions: T/NK cell lymphoma, one representative of three experiments, read-out: IC50 (heat map) SNK6
[20] = test system: MRC-9; experiment: Cytotoxicity assay (Cell Titer-Blue, 72 h); type: cell-based; conditions: MRC9; MRC-9 (healthy fibroblasts); read-out: In cellulo IC50 MRC-9
[21] = test system: SUP-T11; experiment: Cytotoxicity assay (Cell Titer-Blue, 72 h); type: cell-based; conditions: SUPT11; T-ALL/T-PLL like; one representative of three experiments; read-out: IC50 (heat map) SUP-T11
[22] = In vivo PK study in CD-1 male mice; conditions: mouse, plasma, CD-1 mice, IP, 20 mg/kg

**Q.** With O=C(CCCCCCNC(=O)c1cnc(N(c2ccccc2)c2ccccc2Cl)nc1)NO [Citarinostat] as the compound, how does the “cleavage of PARP-1 and Caspase-3” value [1] read?
**A.** absence of cleaved Caspase-3 and PARP-1

**Q.** What about the “acetylation of α-tubulin (immunofluorescence)” value [2] of the same compound?
**A.** weaker acetylation as compared to KT-531

**Q.** What about the IC50 [3] of the same compound?
**A.** 1970 nM

**Q.** What about the IC50 [4] of the same compound?
**A.** 1960 nM

**Q.** What about the IC50 [5] of the same compound?
**A.** 1200 nM

**Q.** What about the IC50 [6] of the same compound?
**A.** 4660 nM

**Q.** And the IC50 [7]?
**A.** 7440 nM

**Q.** And the IC50 [8]?
**A.** 4860 nM

**Q.** And the IC50 [9]?
**A.** 7970 nM

**Q.** And the “acetylated histone H3 levels (Western blot)” value [10]?
**A.** higher with citarinostat in comparison to KT-531

**Q.** And the “Early Apoptosis” value ([11]; 0.5 μM)?
**A.** 9%

**Q.** And the “Late Apoptosis” value ([11]; 1 μM)?
**A.** 10%

**Q.** And the “Healthy (nonapoptotic)” value ([11]; 2 μM)?
**A.** 47%

**Q.** And the IC50 [12]?
**A.** 1980 nM

**Q.** And the IC50 [13]?
**A.** 5740 nM

**Q.** What about the IC50 [14] of the same compound?
**A.** 1780 nM

**Q.** And the IC50 [15]?
**A.** 3770 nM

**Q.** And the IC50 [16]?
**A.** 1340 nM

**Q.** What about the IC50 [17] of the same compound?
**A.** 1720 nM

**Q.** What about the IC50 [18] of the same compound?
**A.** 1020 nM

**Q.** What about the IC50 [19] of the same compound?
**A.** 1900 nM

**Q.** What about the IC50 [20] of the same compound?
**A.** > 30000 nM

**Q.** And the IC50 [21]?
**A.** 3940 nM

**Q.** And the AUC(0-t) ([22]; read-out: In vivo AUClast (overall exposure))?
**A.** 4160 ng·h/mL

**Q.** What about the half-life ([22]; read-out: In vivo t1/2) of the same compound?
**A.** 15 min
